Assay results: PMC10324063, “Comparative Saturation Binding Analysis of ^64Cu-Labeled Somatostatin Analogues Using Cell Homogenates and Intact Cells” (ACS Omega, 2023)
Like-named read-outs stand apart in the source and are kept apart here. Marks after values point to notes of the source that are not given here. Positions of bridges follow the written chain, without caps; N, C: chain ends. Non-standard residues stand in square brackets, D forms with d. Residues, ends and D or L forms follow the SMILES beside them. *: point of attachment. NODAGA = O=C(O)CN1CCN(CC(=O)O)CCN(C(CCC(=O)*)C(=O)O)CC1; dPhe(4-NHCONH2) = NC(=O)Nc1ccc(C[C@@H](N)C(=O)O)cc1; Dihydroorotyl(S) = O=C1C[C@@H](C(=O)*)NC(=O)N1; Phe(4-Cl) = N[C@@H](Cc1ccc(Cl)cc1)C(=O)O; Phe(4-NH2) = Nc1ccc(C[C@H](N)C(=O)O)cc1

How the values were obtained:
SST2 [1] = biological target: T1, SST2 (Mus musculus, UniProt P30875); assay: Saturation binding of 64Cu-labeled radioligands to MPC cell homogenates; conditions: read-out: Kd, MPC cell homogenate
T1 construct: endogenous in cells; host or cells: MPC (mouse pheochromocytoma) cells, passages 35-40
T1 sequence (P30875 whole entry): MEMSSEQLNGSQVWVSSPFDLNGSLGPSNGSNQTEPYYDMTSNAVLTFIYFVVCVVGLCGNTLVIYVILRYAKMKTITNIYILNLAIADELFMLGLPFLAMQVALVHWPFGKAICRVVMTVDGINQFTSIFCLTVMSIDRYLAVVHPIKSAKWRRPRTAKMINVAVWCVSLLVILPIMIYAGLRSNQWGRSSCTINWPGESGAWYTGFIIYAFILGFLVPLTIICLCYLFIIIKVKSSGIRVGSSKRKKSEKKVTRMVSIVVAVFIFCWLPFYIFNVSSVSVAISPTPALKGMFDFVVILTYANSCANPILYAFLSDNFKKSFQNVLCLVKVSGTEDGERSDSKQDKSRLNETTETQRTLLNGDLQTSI
Protocol: MPC cells (passages 35–40) were routinely cultured in collagen-coated flasks as described elsewhere[49] and harvested at 70–80% confluency in Dulbecco’s phosphate-buffered saline containing 2.0 mM ethylenediaminetetraacetic acid (EDTA) at 4 °C for 30 min. Cells were resuspended and frozen in fetal bovine serum containing 10% (v/v) DMSO and stored at −70 °C. After thawing, cells were washed and resuspended in ice-cold saturation assays buffer, pH 7.4, containing 50 mM Tris-HCl, 1 mM EDTA, 0.5 mM o-phenanthroline, and 0.1% (w/v) bovine serum albumin. Cells were homogenized in ice-cold saturation assay buffer supplemented with complete EDTA-free proteinase inhibitor (Roche, Basel Switzerland) using a Dounce homogenizer. Protein content of cell homogenates was measured at A280nm (setting 1 Abs = 1 mg/mL) using a nanodrop spectrophotometer (Thermo-Fisher Scientific).
For the measurement of total binding, 0.155 mL of cell homogenates were incubated with radioligands (molar activity (Am) = 25 MBq/nmol) at increasing final concentrations between 0.625 and 40 nM (final sample volume 0.2 mL) in Polystyrene tubes (5 mL, round bottom, clear, Greiner bio-one, Item no. 115101). […] Activity bound to filters was measured using the gamma counter Wizard (PerkinElmer). Activity in a series of radioligand standards was measured at increasing molar amounts between 0.625 and 40 nM. […]

SST2 [2] = biological target: T1, SST2; assay: Saturation binding of 64Cu-labeled radioligands to intact MPC cells (adherent); conditions: 1 h, 37 °C, mean (68% confidence interval) of one experiment in duplicate or triplicate
Protocol: A number of 3 × 10^5 cells/cm^2 were seeded in collagen-coated 48-well microplates (CELLSTAR 48 Well Cell Culture Multiwell Plates, Polystyrene, Greiner bio-one, Item no. 677180) and grown for three days. For binding assays, cell culture medium was removed and replaced by fresh medium supplemented with the radioligand (Am = 25 MBq/nmol) at increasing final concentrations between 0.321 and 40 nM (final sample volume 0.2 mL). […] Samples were incubated for 60 min at 37 °C. Incubation was stopped by washing with ice-cold Dulbecco’s PBS. Cells were lysed with 0.1 M NaOH containing 1% (w/v) SDS. Activity was measured in cell homogenates and in a series of radioligand standards containing increasing molar amounts between 0.06 and 8 pmol using the gamma counter Wizard (PerkinElmer). […] Measurements for total binding were performed in triplicate, while measurements for nonspecific binding were performed in duplicates.
Plots of “total binding” = f(radioligand) were analyzed by nonlinear regressions using the model of “one site—total, accounting for ligand depletion” as implemented in GraphPad Prism and Plots of “nonspecific binding” = f(radioligand) were analyzed by linear regressions. For the ligand depletion model, the term “NS” was constrained to the respective slopes obtained by the linear regressions. […]

MPC cells [3] = tested on: MPC cells; parameters: method as in Brandt et al.[16], Brandt et al.[17]; conditions: intact MPC cells, 20 nM radioligand, 1 h, 37 °C, acid wash glycine pH 2.8; previously published; ref Brandt et al.[16], Brandt et al.[17]; cited from earlier work
[4] = Radioligand stability toward intact MPC cells under assay conditions; assay type: in vitro ADME, mouse; conditions: 40 nM radioligand, 37 °C, radio-HPLC of supernatant
Excerpt: (§1) Considering the aforementioned exposure of the radioligands to intracellular components in cell homogenates, a degradation by intracellular proteases could lead to reduced radioligand concentrations and thus apparently higher Kd values. While most of the serine and cysteine proteases might be inhibited by the used inhibitor cocktail during homogenization (see Materials and Methods), a residual proteolytic activity cannot be excluded. Therefore, for the two radioligands, [^64Cu]Cu-NODAGA-NES2-TATE and [^64Cu]Cu-NODAGA-NES5-TATE, the stability toward cell homogenates and intact cells under assay conditions were exemplarily examined (Figure S3 in the Supporting Information).
(§2) Figure S3: Stability toward cell homogenate and intact cells
(§3) [64Cu]Cu-NODAGA-NES2-TATE and [64Cu]Cu-NODAGA-NES5-TATE (40 nM) were incubated at 37°C under assay conditions in the presence of MPC cell homogenate or MPC intact cells. After 1 h, an aliquot (160 µL) was withdrawn, mixed with “Supersol” (320 µL), which consists of 20% ethanol, 0.5% Triton X-100, 5 mM EDTA, 0.5 mM o-phenanthroline, and 0.1% saponin. This was followed by centrifugation at 13,500 rpm for 3 min (Thermo Scientific Heraeus Fresco 21). The supernatant was analyzed by radio-HPLC.1, 2 […]
(§4) (1 picture or pasted object on this page, not shown here)

[5] = Radioligand stability toward MPC cell homogenate under assay conditions; assay type: in vitro ADME, mouse; conditions: 40 nM radioligand, 37 °C, radio-HPLC of supernatant
Excerpt: as §1, §2, §3, §4

MPC cells [6] = assay: Cell binding and uptake (acid wash) in MPC cells; assay type: cell-based, mouse; conditions: intact MPC cells, 20 nM radioligand, 1 h, 37 °C, acid wash 0.05 M glycine pH 2.8 for 5 min; nonspecific with 20 μM Acetyl-TATE; from mean values of one experiment in sextuplicate
Protocol: MPC cells were seeded into collagen-coated 24-well microplates and cultivated for 4 days. All washing steps were performed using PBS containing 0.9 mM CaCl2 and 0.5 mM MgCl2. Total radioligand uptake was measured after incubation with the radioligand (Am = 30 GBq/μmol) at a final concentration of 20 nM in RPMI 1640 medium with GlutaMAX supplement (Thermo Fisher Scientific) for 1 h at 37 and 4 °C. Nonspecific binding was determined in the presence of 20 μM Acetyl-TATE. The uptake fraction was measured after acid wash of cell surface-bound radioligand with wash buffer containing 0.05 M glycine, pH 2.8, for 5 min. The activity of cell homogenates was measured using the γ counter Wizard (PerkinElmer). The protein content of cell homogenates was measured as described above.
Nonspecific binding was determined in the presence of 20 µM Acetyl -TATE (radioligand concentration of 20 nM). Data shown in A and B are mean values (±SD) of one experiment, which was performed in sextuplicate. In C, the uptake fraction (“internalized” or not acid releasable radioligand, red bars in A, mean values) is expressed as percentage of specific total-bound radioligand (blue bars in A, mean values). The difference to 100% was assigned to “surface-bound” radioligand. For a better overview, the compound names were abbreviated. […]
specific binding of radioligand
Incubation at 37°C for 1 h […]

For C[C@@H](O)[C@@H]1NC(=O)[C@H](CCCCN)NC(=O)[C@@H](Cc2ccc(NC(N)=O)cc2)NC(=O)[C@H](Cc2ccc(NC(=O)[C@@H]3CC(=O)NC(=O)N3)cc2)NC(=O)[C@H](NC(=O)[C@H](Cc2ccc(Cl)cc2)NC(=O)CCC(C(=O)O)N2CCN(CC(=O)O)CCN(CC(=O)O)CC2)CSSC[C@@H](C(=O)N[C@H](Cc2ccc(O)cc2)C(N)=O)NC1=O (stereo partly drawn) [JR11] ({NODAGA}-[Phe(4-Cl)][dC][Phe(4-NH2)](Dihydroorotyl(S))[dPhe(4-NHCONH2)]KTC[dY]-NH2; disulfide 2-7), the Kd (SST2 [1]) was 5.35 nM and the Kd (SST2 [2]) was 8.17 nM.
For CCCC[C@H](NC(=O)CCC(C(=O)O)N1CCN(CC(=O)O)CCN(CC(=O)O)CC1)C(=O)N[C@H](C(=O)N[C@@H](CCCCN=[N+]=[N-])C(=O)NCCOCCOCC(=O)N[C@H](Cc1ccccc1)C(=O)N[C@H]1CSSC[C@@H](C(=O)N[C@H](C(=O)O)[C@@H](C)O)NC(=O)[C@H]([C@@H](C)O)NC(=O)[C@H](CCCCN)NC(=O)[C@@H](Cc2c[nH]c3ccccc23)NC(=O)[C@H](Cc2ccc(O)cc2)NC1=O)C(C)C (stereo partly shown) [NES1-TATE], the “uptake fraction (internalized or not acid releasable radioligand) as percentage of specific total-bound radioligand” value (MPC cells [3]) is listed as 49 ^d %.
In the case of CCCC[C@H](NC(=O)c1ccc(CNC(=O)CCC(C(=O)O)N2CCN(CC(=O)O)CCN(CC(=O)O)CC2)cc1)C(=O)N[C@H](C(=O)N[C@@H](CCCCN=[N+]=[N-])C(=O)NCCOCCOCC(=O)N[C@H](Cc1ccccc1)C(=O)N[C@H]1CSSC[C@@H](C(=O)N[C@H](C(=O)O)[C@@H](C)O)NC(=O)[C@H]([C@@H](C)O)NC(=O)[C@H](CCCCN)NC(=O)[C@@H](Cc2c[nH]c3ccccc23)NC(=O)[C@H](Cc2ccc(O)cc2)NC1=O)C(C)C (stereo partly shown) [NES2-TATE], the “stability (radioligand remaining stable) after 1 h of incubation with intact MPC cells” value [4] is listed as at least 87%, the “uptake fraction (internalized or not acid releasable radioligand) as percentage of specific total-bound radioligand” value (MPC cells [3]) is listed as 56 ^d % and the “stability (radioligand remaining stable) after 1 h of incubation with MPC cell homogenate” value [5] is listed as at least 87%.
For C[C@@H](O)[C@H](NC(=O)[C@@H]1CSSC[C@H](NC(=O)[C@@H](Cc2ccccc2)NC(=O)COCCOCCNC(=O)[C@H](CCCCN=[N+]=[N-])NC(=O)[C@H](Cc2ccccc2)NC(=O)CNC(=O)c2ccc(CNC(=O)CCC(C(=O)O)N3CCN(CC(=O)O)CCN(CC(=O)O)CC3)cc2)C(=O)N[C@@H](Cc2ccc(O)cc2)C(=O)N[C@H](Cc2c[nH]c3ccccc23)C(=O)N[C@@H](CCCCN)C(=O)N[C@@H]([C@@H](C)O)C(=O)N1)C(=O)O (stereo partly shown) [NES3-TATE], the “uptake fraction (internalized or not acid releasable radioligand) as percentage of specific total-bound radioligand” value (MPC cells [3]) is given as 68 ^d %.
In the case of C[C@@H](O)[C@H](NC(=O)[C@@H]1CSSC[C@H](NC(=O)[C@@H](Cc2ccccc2)NC(=O)COCCOCCNC(=O)[C@H](CCCCN=[N+]=[N-])NC(=O)[C@H](Cc2ccccc2)NC(=O)CNC(=O)[C@@H](CCCNC(=N)N)NC(=O)c2ccc(CNC(=O)CCC(C(=O)O)N3CCN(CC(=O)O)CCN(CC(=O)O)CC3)cc2)C(=O)N[C@@H](Cc2ccc(O)cc2)C(=O)N[C@H](Cc2c[nH]c3ccccc23)C(=O)N[C@@H](CCCCN)C(=O)N[C@@H]([C@@H](C)O)C(=O)N1)C(=O)O (stereo partly shown) [NES4-TATE], the “uptake fraction (internalized or not acid releasable radioligand) as percentage of specific total-bound radioligand” value (MPC cells [3]) is listed as 53 ^d %.
In the case of C[C@@H](O)[C@H](NC(=O)[C@@H]1CSSC[C@H](NC(=O)[C@@H](Cc2ccccc2)NC(=O)COCCOCCNC(=O)[C@H](CCCCn2cc(CCC(=O)N[C@@H](CCCCNC(=O)CCCc3ccc(I)cc3)C(=O)O)nn2)NC(=O)[C@H](Cc2ccccc2)NC(=O)CNC(=O)[C@@H](CCCNC(=N)N)NC(=O)c2ccc(CNC(=O)CCC(C(=O)O)N3CCN(CC(=O)O)CCN(CC(=O)O)CC3)cc2)C(=O)N[C@@H](Cc2ccc(O)cc2)C(=O)N[C@H](Cc2c[nH]c3ccccc23)C(=O)N[C@@H](CCCCN)C(=O)N[C@@H]([C@@H](C)O)C(=O)N1)C(=O)O (stereo partly shown) [NES5-TATE], the “stability (radioligand remaining stable) after 1 h of incubation with intact MPC cells” value [4] is given as at least 87%, the “uptake fraction (internalized or not acid releasable radioligand) as percentage of specific total-bound radioligand” value (MPC cells [3]) is given as 62 ^d % and the “stability (radioligand remaining stable) after 1 h of incubation with MPC cell homogenate” value [5] is given as at least 87%.
For C#CC[C@H](NC(=O)CCC(C(=O)O)N1CCN(CC(=O)O)CCN(CC(=O)O)CC1)C(=O)NCCOCCOCC(=O)N[C@H](Cc1ccccc1)C(=O)N[C@H]1CSSC[C@@H](C(=O)N[C@H](C(=O)O)[C@@H](C)O)NC(=O)[C@H]([C@@H](C)O)NC(=O)[C@H](CCCCN)NC(=O)[C@@H](Cc2c[nH]c3ccccc23)NC(=O)[C@H](Cc2ccc(O)cc2)NC1=O (stereo partly shown) [Pra-PEG2-TATE], the “uptake fraction (internalized or not acid releasable radioligand) as percentage of specific total-bound radioligand” value (MPC cells [6]) was 48%.
For C[C@@H](O)[C@H](NC(=O)[C@@H]1CSSC[C@H](NC(=O)[C@@H](Cc2ccccc2)NC(=O)COCCOCCNC(=O)[C@H](Cc2cn(CCCCC(=O)N[C@H](CCCCNC(=O)CCCc3ccc(I)cc3)C(=O)O)nn2)NC(=O)CCC(C(=O)O)N2CCN(CC(=O)O)CCN(CC(=O)O)CC2)C(=O)N[C@@H](Cc2ccc(O)cc2)C(=O)N[C@H](Cc2c[nH]c3ccccc23)C(=O)N[C@@H](CCCCN)C(=O)N[C@@H]([C@@H](C)O)C(=O)N1)C(=O)O (stereo partly shown) [cLAB1-TATE], the “uptake fraction (internalized or not acid releasable radioligand) as percentage of specific total-bound radioligand” value (MPC cells [6]) was 66%.
